Consider 1 molecule from PMC11547513, “Design, Synthesis and Biological Activity Evaluation of β-Carboline Derivatives Containing Nitrogen Heterocycles” (Molecules, 2024).

Where two headings read alike, the source gives them in different places. Bounds are passed on as bounds.

In general, IC50 refers to the midpoint of a concentration-inhibition curve.

The test system of experiment [1] is PC-3 (human prostate cancer cell). The experiment in a line: MTT assay, in vitro cytotoxicity on PC-3. (Formazan colour is commonly taken as a measure of viable cells.)
From the text: Cells were purchased from the Cell Bank of the Chinese Academy of Sciences (Kunming, China).
The test system of the next experiment is Cyclin D1. Kind of experiment: Western blot of Cyclin D1 expression in PC-3 cells. Type of experiment: cell-based, human. The settings on record: 30 μM, 24 h, β-Tubulin internal reference. On the procedure: To analyze the effect of compound 8q on cell cycle, the cycle of PC-3 cells was detected after being treated with compound 8q for 24 h (Figure 5). […] In addition, Cyclin D1, a cell cycle-related protein, is a key regulator of cycle progression, mainly regulating G1/S phase transition. […] In summary, compound 8q can arrest cells in the G0/G1 phase. […]
2.6.Effects of 8q on expression of cell cycle related protein
PC-3 cells were seeded in six-well plates at a density of 3 × 10^5 per well and incubated in 5 % CO2 incubator at 37 ℃ for 24 h. Then different concentrations of 8q and Harmine were added to continue cultivation for 24 h. The prepared 1× RIPA lysis buffer (Solarbio, Beijing, China), as well as protease (Solarbio, Beijing, China) and phosphatase inhibitors (Solarbio, Beijing, China), were added to the well in a ratio of 100:1:1. The cells were scraped off and then lysed on ice for 40 min. Mixed liquid was centrifuged, and the supernatant used the BCA protein assay kit (Beyotime, Shanghai, […]
China) to measure protein concentration. 12.5% SDS-PAGE gel was used to separate the extracted total protein, which was transferred onto a PVDF membrane and sealed with 5% skim milk for 2.5 h. After that, primary antibodies included β-Tubulin and Cyclin D1 were added and incubated overnight at 4 ℃. […]

For the molecule `COc1cc(-c2nc(-c3nnc(SCC(=O)Nc4ccc(CN5CCOCC5)cc4)o3)cc3c2[nH]c2ccccc23)cc(OC)c1OC` [Compound 8q, N-(4-(morpholinomethyl)phenyl)-2-((5-(1-(3,4,5-trimethoxyphenyl)-9H-pyrido[3,4-b]indol-3-yl)-1,3,4-oxadiazol-2-yl)thio)acetamide], the 50% inhibitory concentration (IC50) in experiment [1] (Homo sapiens, read-out: IC50 (Mean ± S.D.), PC-3, average of three replicates) was < 10 µM; in experiment [1] (read-out: IC50 (Mean ± S.D.), PC-3, average of three replicates) it was 9.86 ± 1.03 µM. Moreover, in experiment [1] (Homo sapiens, read-out: Inhibitory Activity/% at 10 μM, PC-3, Table 2 (8 series), 10 μM, average of three replicates, "/" means no anticancer activity), the inhibition at 10 µM turned out to be 46.1 ± 0.74%. The “Expression of Cyclin D1” value with Cyclin D1 was “significantly downregulated”.
